Earlier results as cited in patent US20220127231A1, “PROCESS FOR THE PREPARTION OF AMIFAMPRIDINE PHOSPHATE” (SHILPA MEDICARE LTD, priority 2020, published 2022).

How the values were obtained:
[1] = 1% solution in water at 25° C.

Nc1ccncc1N [Amifampridine phosphate]
solubility in dimethyl sulfoxide (dimethyl sulfoxide): slightly soluble | solubility in dimethylformamide (dimethylformamide): very slightly soluble | solubility in ethanol (ethanol): very slightly soluble | solubility in glacial acetic acid (glacial acetic acid): slightly soluble | solubility in methanol (methanol): slightly soluble | solubility in water (water): practically soluble | pH of 1% solution in water [1]: 4.6±0.2
